Source: patent publication US20190309323A1, “PROMOTER WITH AN ENRICHED CYTOSINE-GUANINE DINUCLEOTIDE REGION, VECTORS, CELLULAR LINES, METHOD FOR PRODUCING RECOMBINANT PROTEIN” (UNIVERSIDAD DE CHILE, priority 2016, published 2019)

B1: RegCG: 1147 bp fragment of Cricetulus griseus β-actin promoter rich in cytosine-guanine dinucleotides, SEQ ID NO. 5 (nucleic acid)
DNA: GGAGAGGGGGTAAAAAAATGCTGCACTGTGCGGCTAGGCCGGTGAGTGAGCGGCGCGGAGCCAATCAGCGCTCGCCGTTCCGAAAGTTGCCTTTTATGGCTCGAGTGGCCGCTGTGGCGTCCTATAAAACCCGGCGGCGCAACGCGCAGCCACTGTCGAGTCCGCGTCCACCCGCGAGCACAGGCCTTTCGCAGCTCTTTCTTCGCCGCTCCACACCCGCCACCAGGTAAGCAGGGACAACAGGCCCAGCCGGCCACAGCCCTCCCGTGGGCAGTGACCGCGCTGCAGGGTCGCGGGGGACACTCGGCGCGGACACCGGGGAAGGCTGGAGGGTGGTGCCGGGCCGCGGAGCGGACACTTTCAGATCCAACTTTCAGTCCAGGGTGTAGACCCTTTACAGCCGCATTGCCACGGTGTAGACACCGGTGGACCCGCTCTGGCTCAGAGCACGCGGCTTGGGGGAACCCATTAGGGTCGCAGTGTGGGCGCTATGAGAGCCGATGCAGCTTTCGGGTGTTGAACCGTATCTGCCCACCTTGGGGGGAGGACACAAGGTCGGGAGCCAAACGCCACGATCATGCCTTGGTGGCCCATGGGTCTTTGTCTAAACCGGTTTGCCCATTTGGCTTGCCGGGCGGGCGGGCGCGGCGGGCCCGGCTCGGCCGGGTTGGGGGCTGGGTTGCCACTGCGCTTGCGCGCTCTATGGCTGGGTATTGGGGCGCGTGCACGCTGGGGAGGGAGCCCTTCCTCTTCCCCCTCTCCCAAGTTAAACTTGCGCGTGCGTATTGAGACTTGGAGCGCGGCCACCGGGGTTGGGCGAGGGCGGGGCCGTTGTCCGGAAGGGGCGGGGTCGCAGCGGCTTCGGGGCGCCTGCTCGCGCTTCCTGCTGGGTGTGGTCGCCTCCCGCGCGCGCACTAGCCGCCCGCCGGCGGGGCGAAGGCGGGGCTTGCGCCCGTTTGGGGAGGGGGCGGAGGCCTGGCTTCCTGCCGTGGGGCCGCCTCCGGACCAGCGTTTGCCTCTTATGGTAATAACGCGGCCGGCCTGGGCTTCCTTTGTCCCCTGAGTTTGGGCGCGCGCCCCCTGGCGGCCCGAGGCCGCGGCTTGCCGGAAGTGGGCAGGGCGGCAGCGGCTGCGCCTAGTGGCCCGCCAGTGACCGCGACCCTCTTTTGTGCCCTGATATAGTTCGCC
modifications: Promoter

System: CHO-K1 cells
Test: Transient transfection Dual-Glo luciferase assay (Luc/Ren)
Assay type: cell-based, Chinese hamster
Conditions: FIG. 9
Description: Furthermore, the effect of addition of the promoter on luciferase activity in transient transfections was determined. CHO-K1 cells were grown to reach 90% confluence were co-transfected using Lipofectamine CD (Invitrogen. EEU U), with the normalization vector pGL4.73 (Promega. USA) expressing Renilla luciferase reniformis (Ren), under the control of SV40 promoter, and with experimental vectors Seq1-Luc (SEQ ID No.: 2), Seq4-Luc (SEQ ID No.: 35) and Seq5-Luc (SEQ ID No.: 36) expressing Photinus pyralis luciferase (Luc), under the control of the promoters studied and pGL4.17 (base vector without promoter).
CHO-K1 cells were cultured in 24-well plates in DMEM-F12 medium (Gibco) supplemented with fetal bovine serum (FBS) (HyClone) 10%, at 37° C. and 5% CO2, inoculating 300,000 cells/mL for 24 hours, or up to between 80 to 90% confluency. […] To analyze the activity of the reporter gene transfections, the “Dual-Glo Luciferase Assay System (Promega. USA)” (Promega) was used following the manufacturer's instruction, where from cell lysate its measurable sequentially luciferase activity firefly expressed as reporters vectors and activity of renilla luciferase expressed by the normalizer vector. Both activities were mediated by quantifying luminiscence read on a Lumininometer, model Luminoskan ASECNT (Thermo Electronic Corporation). […]

| Molecule | relative luciferase activity in transient transfection |
| --- | --- |
| Seq5-Luc: reporter vector SEQ ID No. 36 under control of the minimal portion of CMV or Core CMV [reference compound] | lowest activity |
| B1 | has transcriptional activity |
